Source: paper PMC12557365 (Journal of Medicinal Chemistry, 2025)
Values joined by “and” are separate entries in the source; they are usually repeats but may differ in a detail not shown here. Equal entries are not always repeated. “Also recorded” adds a separate entry of the source. Where two headings read alike, the source gives them in different places.

Key:
in vitro [1] = conditions: pig, LLC-PK1
in vitro [2] = conditions: both, human, microsomes
Human Thrombin = Human Thrombin (Homo sapiens, UniProt P00734); assay: biochemical
Human Caspase 2 = Human Caspase 2 (Homo sapiens, UniProt P42575); assay: biochemical
[3] = pig
HIV-1 Protease = HIV-1 Protease (Human immunodeficiency virus type 1 group M subtype B, UniProt P04585); assay: biochemical
in vivo [4] = conditions: male, Sprague-Dawley, rat
[5] = tested on: SARS-CoV-2 Gamma strain (hCoV-19/Japan/TY7-501/2021); assay: microbe, parasite or virus in culture; format: cell-based
[6] = tested on: SARS-CoV-2 hCoV-19/Japan/TY/WK-521 strain; assay: microbe, parasite or virus in culture; format: cell-based; conditions: Severe acute respiratory syndrome coronavirus 2, HEK-293T, read-out: HEK 293T-AT EC50
[7] = tested on: SARS-CoV-2 Gamma strain (hCoV-19/Japan/TY7-501/2021); set-up: species or system BALB/cAJcl mice; conditions: mouse, in vivo
[8] = in vivo
in vitro [9] = conditions: male, rat, microsomes
P-gp [10] = biological target: T1, P-gp (Homo sapiens, UniProt P08183); assay: in vitro; conditions: LLC-PK1
HCoV-229E [11] = assay: microbe, parasite or virus in culture; format: cell-based; conditions: read-out: EC50 HCoV-229E
[12] = tested on: SARS-CoV-2 Omicron strains; assay: microbe, parasite or virus in culture; format: cell-based; conditions: Severe acute respiratory syndrome coronavirus 2, Epithelial cell
SARS-CoV [13] = assay: microbe, parasite or virus in culture; format: cell-based; conditions: Severe acute respiratory syndrome coronavirus, VeroE6/TMPRSS2, read-out: EC50 SARS-CoV
P-gp [14] = biological target: T1, P-gp; conditions: LLC-PK1
HCoV-OC43 = assay: microbe, parasite or virus in culture; format: cell-based; conditions: Betacoronavirus 1, OC43, MRC5, read-out: EC50 HCoV-OC43
in vitro [15] = conditions: African green monkey
Human Chymotrypsin = format: biochemical
Human Cathepsin B/D/G/L = format: biochemical
in vivo [16] = conditions: female, cynomolgus monkey, iv, 0.1 mg/kg
MERS-CoV [17] = assay: microbe, parasite or virus in culture; format: cell-based; conditions: Middle East respiratory syndrome-related coronavirus, VeroE6/TMPRSS2, read-out: EC50 MERS-CoV
SARS-CoV-2 = assay: microbe, parasite or virus in culture; format: cell-based; conditions: Severe acute respiratory syndrome coronavirus 2, A549
in vivo [18] = conditions: male, beagle, dog, iv, 0.1 mg/kg
MERS-CoV [19] = conditions: cited from earlier work
[20] = LLC-PK1; cited from earlier work
SARS-CoV [21] = conditions: cited from earlier work
HCoV-229E [22] = conditions: cited from earlier work
[23] = human, microsomes, 0.5 h; cited from earlier work
P-gp [24] = biological target: T1, P-gp; conditions: LLC-PK1; cited from earlier work
[25] = rat, microsomes, 0.5 h; cited from earlier work
[26] = tested on: SARS-CoV-2 hCoV-19/Japan/TY/WK-521 strain; conditions: read-out: HEK 293T-AT EC50; cited from earlier work
[27] = Severe acute respiratory syndrome coronavirus 2, VeroE6/TMPRSS2, read-out: EC90, 0% serum
[28] = Severe acute respiratory syndrome coronavirus 2, VeroE6/TMPRSS2, read-out: EC90, 12.5% serum
[29] = Severe acute respiratory syndrome coronavirus 2, VeroE6/TMPRSS2, read-out: EC90, 25% serum

T1 sequence (P08183 whole entry): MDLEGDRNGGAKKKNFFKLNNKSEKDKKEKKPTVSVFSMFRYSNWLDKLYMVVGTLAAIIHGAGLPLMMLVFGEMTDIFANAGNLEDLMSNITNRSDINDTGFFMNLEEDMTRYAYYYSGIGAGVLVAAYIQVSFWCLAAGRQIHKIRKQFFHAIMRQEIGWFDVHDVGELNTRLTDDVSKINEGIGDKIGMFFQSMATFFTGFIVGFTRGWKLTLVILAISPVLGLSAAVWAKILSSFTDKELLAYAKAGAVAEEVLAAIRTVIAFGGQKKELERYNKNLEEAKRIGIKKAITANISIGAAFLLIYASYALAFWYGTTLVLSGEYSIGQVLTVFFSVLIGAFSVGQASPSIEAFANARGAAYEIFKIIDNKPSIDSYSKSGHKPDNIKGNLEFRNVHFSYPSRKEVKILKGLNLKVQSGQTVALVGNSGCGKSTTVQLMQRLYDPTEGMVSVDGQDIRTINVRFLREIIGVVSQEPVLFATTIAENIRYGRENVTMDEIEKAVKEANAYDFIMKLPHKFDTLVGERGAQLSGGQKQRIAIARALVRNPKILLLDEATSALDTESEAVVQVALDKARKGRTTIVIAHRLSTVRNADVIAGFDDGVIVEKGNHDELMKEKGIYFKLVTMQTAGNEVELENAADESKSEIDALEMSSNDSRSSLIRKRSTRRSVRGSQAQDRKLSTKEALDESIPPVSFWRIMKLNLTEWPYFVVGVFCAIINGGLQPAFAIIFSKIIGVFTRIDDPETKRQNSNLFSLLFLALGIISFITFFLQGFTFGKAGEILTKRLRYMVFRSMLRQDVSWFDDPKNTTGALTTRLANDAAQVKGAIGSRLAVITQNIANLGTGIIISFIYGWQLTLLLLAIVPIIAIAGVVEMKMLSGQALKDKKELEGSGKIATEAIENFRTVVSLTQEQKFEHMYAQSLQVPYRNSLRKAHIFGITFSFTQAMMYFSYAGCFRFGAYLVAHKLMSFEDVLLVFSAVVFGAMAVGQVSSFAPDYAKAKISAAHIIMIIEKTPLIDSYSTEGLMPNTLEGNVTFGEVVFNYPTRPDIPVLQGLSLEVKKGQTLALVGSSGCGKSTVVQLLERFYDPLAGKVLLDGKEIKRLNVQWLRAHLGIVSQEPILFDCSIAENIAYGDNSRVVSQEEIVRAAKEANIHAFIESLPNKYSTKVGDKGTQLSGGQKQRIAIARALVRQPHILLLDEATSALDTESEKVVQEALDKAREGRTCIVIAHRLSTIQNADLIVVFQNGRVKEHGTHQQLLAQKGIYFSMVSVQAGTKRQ
Human Caspase 2, sequence (P42575 170-333): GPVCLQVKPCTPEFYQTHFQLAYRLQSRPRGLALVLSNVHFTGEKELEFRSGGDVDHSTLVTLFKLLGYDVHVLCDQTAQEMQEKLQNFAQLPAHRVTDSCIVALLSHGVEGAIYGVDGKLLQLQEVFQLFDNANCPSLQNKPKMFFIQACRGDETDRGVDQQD
Human Caspase 2, sequence (P42575 348-452): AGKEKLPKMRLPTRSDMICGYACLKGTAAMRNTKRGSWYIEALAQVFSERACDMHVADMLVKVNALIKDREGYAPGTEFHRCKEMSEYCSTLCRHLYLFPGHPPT

`N#CCn1c(N2CC3(C2)CC(F)(F)C3)c(-c2ccc(F)c(Cl)c2)c(=O)n(-c2cncc(Cl)c2)c1=O` [Compound 17, [5-(3-Chloro-4-fluorophenyl)-3-(5-chloropyridin-3-yl)-6-(6,6-difluoro-2-azaspiro[3.3]-heptan-2-yl)-2,4-dioxo-3,4-dihydropyrimidin-1(2H)-yl]-acetonitrile] showed a Papp A→B (in vitro [1]) of 6.17 ×10⁻⁶ cm/s, a Papp B→A (in vitro [1]) of 7.36 ×10⁻⁶ cm/s and a remaining at 0.5 h (in vitro [2]) of 99%. The IC50 (Human Thrombin) was over 10000 nM, the IC50 (Human Caspase 2) was over 10000 nM and the “LLC-PK1 P app” value [3] was 6.17 × 10^–6 cm/s. For the same molecule, the IC50 (HIV-1 Protease) was over 10000 nM, the clearance (in vivo [4]; iv) was 6.79 mL/min/kg and the half-life (in vivo [4]; iv) was 8.14 h. For the same molecule, the bioavailability (in vivo [4]; po, 1 umol/kg) was 100%, the EC90 [5, 27] was 1.66 ± 0.14 nM and the EC90 [5, 28] was 1.98 ± 0.08 nM. For the same molecule, the EC90 [5, 29] was 3.42 ± 0.55 nM, the EC90 ([5]; read-out: EC90, 12.5% serum) was 2.43 ± 0.32 nM and the EC90 ([5]; read-out: EC90, 25% serum) was 2.76 ± 0.66 nM. For the same molecule, the EC50 [6] was 2.48 nM, the lung virus titers [7] was “reduced lung virus titers in a dose-dependent manner; also recorded: Virus titer reduction was observed; also recorded: appeared to reach maximum efficacy” and the adverse effects [8] was “No adverse effects were observed”. For the same molecule, the teratogenicity [8] was “No teratogenicity was observed”, the remaining at 0.5 h (in vitro [9]) was 92% and the Papp A→B (P-gp [10]) was 2.48 ×10⁻⁶ cm/s. For the same molecule, the Papp B→A (P-gp [10]) was 22.4 ×10⁻⁶ cm/s, the EC50 (HCoV-229E [11]) was 3570 ± 510 nM and the EC90 [12] was 2.41 ± 1.61 nM. For the same molecule, the EC90 ([12]; in Mus musculus, read-out: protein-adjusted EC90 (PA-EC90)) was 27 nM to 28.1 nM and 0.0141 µg/mL to 0.0147 µg/mL, the EC50 (SARS-CoV [13]) was 6.61 nM and the P-gp substrate assessment (P-gp [14]) was “P-gp substrates”. For the same molecule, the EC50 (HCoV-OC43) was 92 nM, the CC50 (in vitro [15]) was over 100000 nM and the IC50 (Human Chymotrypsin) was over 10000 nM. It also gave an IC50 (Human Cathepsin B/D/G/L) of over 10000 nM, a clearance (in vivo [16]) of 11.4 mL/min/kg and a half-life (in vivo [16]) of 7.02 h. The EC50 (MERS-CoV [17]) was 57.3 nM, the EC50 (SARS-CoV-2) was 2.21 nM and the clearance (in vivo [18]) was 2.52 mL/min/kg. It also gave a half-life (in vivo [18]) of 24.9 h.
In the case of `Cn1cnc(Cn2c(=O)[nH]/c(=N\c3cc4cn(C)nc4cc3Cl)n(Cc3cc(F)c(F)cc3F)c2=O)n1` [ensitrelvir], the EC50 (MERS-CoV [19]) is listed as 1400 nM, the “Papp Apical to Basolateral” value [20] is listed as 10.3 ± 0.3 ×10-6 cm/sec and the “Papp Basolateral to Apical” value [20] is listed as 11.6 ± 0.3 ×10-6 cm/sec. The EC50 (SARS-CoV [21]) was 210 nM, the EC90 [5, 27] was 118 ± 52 nM and the EC90 [5, 28] was 367 ± 69 nM. The EC90 [5, 29] was 608 ± 75 nM, the EC90 ([5]; Severe acute respiratory syndrome coronavirus 2, VeroE6/TMPRSS2, read-out: EC90, 50% serum) was 838 ± 191 nM and the EC90 ([5]; Severe acute respiratory syndrome coronavirus 2, VeroE6/TMPRSS2, read-out: EC90, 100% (Extrapolated)) was 1590 ± 330 nM. The EC90 ([5]; read-out: EC90, 12.5% serum) was 218 ± 60 nM, the EC90 ([5]; read-out: EC90, 25% serum) was 462 ± 129 nM and the EC90 ([5]; read-out: EC90, 50% serum) was 1560 ± 290 nM. For the same molecule, the EC90 ([5]; read-out: EC90, 100% (Extrapolated)) was 2920 ± 550 nM, the EC50 (HCoV-229E [22]) was 5500 nM and the HLM % remained [23] was 96/88^25%. The “Papp Apical to Basolateral” value (P-gp [24]) was 2.03 ± 0.07 ×10-6 cm/sec, the “Papp Basolateral to Apical” value (P-gp [24]) was 30.2 ± 1.8 ×10-6 cm/sec and the EC90 [12] was 60.1 ± 32.8 nM. The P-gp substrate assessment (P-gp [14]) was “P-gp substrates”, the EC50 (HCoV-OC43) was 142 ± 9 nM and the RLM % remained [25] was 96/88^25%. The EC50 [26] was 27 nM and the EC50 (SARS-CoV-2) was 73.1 ± 16.4 nM.
